Laboratory results from the supplement of paper PMC9663587.

How the values were obtained:
[1] = compound: CN(C)C(=O)c1cc2cnc(Nc3ccc(N4CCNCC4)cn3)nc2n1C1CCCC1 [LEE011/Ribociclib]; assay: increase in dead-cell fraction, 72 h; higher = more death;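 further: breast cancer cell lines in 384-well plates, stained with Hoechst plus LIVE/DEAD far red dye and imaged, cells above an LDR intensity threshold counted dead, Hoechst-negative corpses included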
[2] = compound: CN(C)C/C=C/C(=O)Nc1ccc(C(=O)N2CCC[C@@H](Nc3ncc(Cl)c(-c4c[nH]c5ccccc45)n3)C2)cc1 [THZ531]; assay: as above
[3] = compound: CN(C)C/C=C/C(=O)Nc1ccc(C(=O)Nc2cccc(Nc3ncc(Cl)c(-c4c[nH]c5ccccc45)n3)c2)cc1 [THZ1]; assay: as above
[4] = compound: T1, CN1CC[C@H](c2c(O)cc(O)c3c(=O)cc(-c4ccccc4Cl)oc23)[C@H](O)C1 [Flavopiridol]; assay: as above
[5] = compound: CCOc1cc2ncc(C#N)c(Nc3ccc(OCc4ccccn4)c(Cl)c3)c2cc1NC(=O)/C=C/CN(C)C [Neratinib/HKI272]; assay: GR value, 72 h; higher = faster growth (1 = untreated, <0 = killing);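 further: breast cancer and non-malignant breast epithelial lines, nine half-log doses, viable cells counted by Hoechst and LIVE/DEAD dye imaging versus time-zero plates and DMSO controls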
[6] = compound: T1, Flavopiridol; assay: as above

Q: With PDX1328 as the cell line, how does the “increase in dead-cell fraction” value ([1]; 0.001 µM) read?
A: -0.0001

Q: What about the “increase in dead-cell fraction” value ([1]; 0.003162 µM) of the same cell line?
A: -0.0049

Q: What about the “increase in dead-cell fraction” value ([1]; 0.01 µM) of the same cell line?
A: -0.0091

Q: What about the “increase in dead-cell fraction” value ([1]; 0.03162 µM) of the same cell line?
A: -0.0001

Q: What about the “increase in dead-cell fraction” value ([1]; 0.1 µM) of the same cell line?
A: 0.0131

Q: And the “increase in dead-cell fraction” value ([1]; 0.3162 µM)?
A: 0.0012

Q: What about the “increase in dead-cell fraction” value ([1]; 1 µM) of the same cell line?
A: -0.0011

Q: What about the “increase in dead-cell fraction” value ([1]; 3.162 µM) of the same cell line?
A: 0.005

Q: And the “increase in dead-cell fraction” value ([1]; 10 µM)?
A: 0.0126

Q: What about the “increase in dead-cell fraction” value ([2]; 0.0001 µM) of the same cell line?
A: -0.0004

Q: And the “increase in dead-cell fraction” value ([2]; 0.0003162 µM)?
A: -0.0097

Q: And the “increase in dead-cell fraction” value ([2]; 0.001 µM)?
A: 0.0015

Q: And the “increase in dead-cell fraction” value ([2]; 0.003162 µM)?
A: 0

Q: What about the “increase in dead-cell fraction” value ([2]; 0.01 µM) of the same cell line?
A: 0.003

Q: And the “increase in dead-cell fraction” value ([2]; 0.03162 µM)?
A: -0.0033

Q: And the “increase in dead-cell fraction” value ([2]; 0.1 µM)?
A: 0.0477

Q: And the “increase in dead-cell fraction” value ([2]; 0.3162 µM)?
A: 0.199

Q: What about the “increase in dead-cell fraction” value ([2]; 1 µM) of the same cell line?
A: 0.186

Q: And the “increase in dead-cell fraction” value ([3]; 0.0001 µM)?
A: -0.0047

Q: And the “increase in dead-cell fraction” value ([3]; 0.0003162 µM)?
A: -0.0031

Q: What about the “increase in dead-cell fraction” value ([3]; 0.001 µM) of the same cell line?
A: -0.0014

Q: What about the “increase in dead-cell fraction” value ([3]; 0.003162 µM) of the same cell line?
A: -0.0053

Q: What about the “increase in dead-cell fraction” value ([3]; 0.01 µM) of the same cell line?
A: 0.0031

Q: And the “increase in dead-cell fraction” value ([3]; 0.03162 µM)?
A: 0.0436

Q: And the “increase in dead-cell fraction” value ([3]; 0.1 µM)?
A: 0.123

Q: What about the “increase in dead-cell fraction” value ([3]; 0.3162 µM) of the same cell line?
A: 0.225

Q: What about the “increase in dead-cell fraction” value ([3]; 1 µM) of the same cell line?
A: 0.432

Q: And the “increase in dead-cell fraction” value ([4]; 0.0001 µM)?
A: 0.003

Q: And the “increase in dead-cell fraction” value ([4]; 0.0003162 µM)?
A: -0.0035

Q: What about the “increase in dead-cell fraction” value ([4]; 0.001 µM) of the same cell line?
A: -0.0003

Q: And the “increase in dead-cell fraction” value ([4]; 0.003162 µM)?
A: -0.0025

Q: And the “increase in dead-cell fraction” value ([4]; 0.01 µM)?
A: -0.0027

Q: And the “increase in dead-cell fraction” value ([4]; 0.03162 µM)?
A: -0.0044

Q: What about the “increase in dead-cell fraction” value ([4]; 0.1 µM) of the same cell line?
A: -0.0014

Q: What about the “increase in dead-cell fraction” value ([4]; 0.3162 µM) of the same cell line?
A: 0.0342

Q: And the “increase in dead-cell fraction” value ([4]; 1 µM)?
A: 0.348

Q: And the GR value ([5]; 0.0003162 µM)?
A: 1.02 GR

Q: What about the GR value ([5]; 0.001 µM) of the same cell line?
A: 1.02 GR

Q: And the GR value ([5]; 0.003162 µM)?
A: 1.01 GR

Q: What about the GR value ([5]; 0.01 µM) of the same cell line?
A: 0.898 GR

Q: What about the GR value ([5]; 0.03162 µM) of the same cell line?
A: 0.762 GR

Q: And the GR value ([5]; 0.1 µM)?
A: 0.675 GR

Q: What about the GR value ([5]; 0.3162 µM) of the same cell line?
A: 0.537 GR

Q: And the GR value ([5]; 1 µM)?
A: 0.223 GR

Q: What about the GR value ([5]; 3.162 µM) of the same cell line?
A: 0.0191 GR

Q: And the GR value ([6]; 0.0001 µM)?
A: 1.06 GR

Q: What about the GR value ([6]; 0.0003162 µM) of the same cell line?
A: 1.06 GR

Q: And the GR value ([6]; 0.001 µM)?
A: 0.963 GR

Q: And the GR value ([6]; 0.003162 µM)?
A: 0.955 GR

Q: What about the GR value ([6]; 0.01 µM) of the same cell line?
A: 1.01 GR

Q: And the GR value ([6]; 0.03162 µM)?
A: 1.08 GR

Q: And the GR value ([6]; 0.1 µM)?
A: 0.909 GR

Q: What about the GR value ([6]; 0.3162 µM) of the same cell line?
A: 0.239 GR

Q: And the GR value ([6]; 1 µM)?
A: -0.603 GR
